Test results: patent US11510980B2, “Brartemicin analogues” (VICTORIA LINK LTD, priority 2017, dated 2022)
Entries after “also recorded” stand apart in the source; their conditions may differ.

Assays:
hMincle+FcRγ = target: T1, hMincle+FcRγ (Homo sapiens, UniProt Q9ULY5); assay: 2B4-NFAT-GFP reporter cells expressing hMincle+FcRγ; type: cell-based; conditions: ligand-coated plates 0.01, 0.1 or 1 nmol/well, 18 hours
T1 construct: expressed in transfected cells; host or cells: 2B4-NFAT-GFP reporter cells
T1 sequence (Q9ULY5 1-219): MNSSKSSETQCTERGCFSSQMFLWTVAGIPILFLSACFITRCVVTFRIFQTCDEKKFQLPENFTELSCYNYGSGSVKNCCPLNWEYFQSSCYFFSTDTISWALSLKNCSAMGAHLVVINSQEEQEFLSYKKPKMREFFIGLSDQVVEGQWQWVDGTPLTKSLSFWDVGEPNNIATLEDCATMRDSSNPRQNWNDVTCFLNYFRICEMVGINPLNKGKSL
Experimental: (§1) Preparation of ligand-coated plates: Brartemicin analogues 9a-9i, TDM (Carbosynth, Sigma Aldrich), and TDB^14 were dissolved in CHCl3:MeOH (2:1, 1 mM), diluted in isopropanol ([…]) and added to 96-well plates (20 μL/well). The solvents were evaporated and the coated plates were used immediately.
2B4-NFAT-GFP reporter cells: 2B4-NFAT-GFP reporter cells expressing mMincle+FcRγ, hMincle+FcRγ, or FcRγ only have been previously described. […] The reporter cells were harvested, stained with propidium iodide, and analysed for NFAT-GFP expression using flow cytometry (FACS Calibur).
To determine whether the Mincle binding observed in Example 1 correlated with cellular activation, nuclear factor of activated T cells (NFAT)-green fluorescent protein (GFP) reporter cells expressing mMincle or hMincle coupled to FcRγ were stimulated using plates coated with TDM, TDB, brartemicin (9i), or analogues 9a-9h.
Activation of the reporter cells was measured through the production of GFP, which was monitored by flow cytometry (FIGS. 1b and 3c).
With the compounds 43a-h in hand, the ability of these analogues to bind and signal through Mincle was assessed (FIG. 5). Accordingly, NFAT-GFP reporter cells expressing mMincle+FcRγ, hMincle+FcRγ, or FcRγ-only were stimulated with the 2G-brartemicin analogues 43a-h, TDB, iPrOH, or the p-OC18H37 substituted analogue, 9f. Reporter cell activation was measured by the production of NFAT-GFP, which was analysed by flow cytometry.

wild-type GM-CSF BMDMs = assay: Cytokine/chemokine production by wild-type GM-CSF BMDMs on ligand-coated plates; type: cell-based, C57BL/6 mice; conditions: wild-type BMDMs, coated plates 0.1 or 1 nmol/well, 24 hours, ELISA
Experimental: as §1
Murine bone-marrow derived macrophages: For the preparation of murine bone-marrow derived macrophages, bone marrow cells were collected from the tibias and femurs of C57BL/6 mice and cultured (250,000 cells/mL) in complete RPMI media [RPMI-1640 (Gibco) with 10% heat inactivated fetal bovine serum (Gibco), 100 unit/mL penicillin-streptomycin (Gibco) and 2 mM Glutamax (Gibco)] supplemented with 50 ng/mL GM-CSF (clone X63/GM-CSF murine cells). Cells were incubated at 37° C. (5% CO2) for 8 days (cells fed by replacing half the media on days 3 and 6). On day 8, all media was removed and the cells were washed with Dulbecco's Phosphate-Buffered Saline (DPBS, Gibco) to remove any loosely-adherent cells. The BMDMs were harvested with StemPro Acutase (1 mL/well, 15 minutes at room temperature, Gibco) and seeded onto a pre-coated 96-well plate. The supernatant was collected and analysed for cytokine/chemokine production after 24 hours.
(§2) Cytokine analysis: IL-1β, IFN-γ, IL-6, TNF-α (BD Biosciences), IL-17, and MIP-2 (R&D) levels were determined via sandwich ELISA according to the manufacturer's instructions.
First, the ability of the compounds to activate GM-CSF BMDMs was determined by monitoring the secretion of the inflammatory cytokines TNF, IL-6, and IL-1β and the chemokine, MIP-2, in a ligand-coated plate assay (FIG. 2).
To gain insight into the capacity of the 2G-series of brartemicin analogues to induce an inflammatory immune response, the analogues were then screened for their ability to activate WT and Mincle^−/− BMDMs, with cellular activation being determined by the measurement of IL-1B using ELISA (FIG. 6).

[1] = system: OT-II CD4+ T-cells co-cultured with GM-CSF BMDMs; assay: BMDM / OT-II T-cell co-culture, OVA-specific IFN-γ and IL-17; type: cell-based, mice; conditions: 48 hours
Experimental: as §2
BMDC-OT-II T-cell co-cuture: A mixture of OT-II cells (1×10^5 cells/100 μL) and BMDCs (1×10^4 cells/100 μL) were stimulated with plate coated glycolipd (0.1 nmol/well) or iPrOH only (20 μL/well) and increasing concentrations of OVA (0, 0.1, or 1 μM). After 48 or 72 hours, the supernatant was collected and ELISA was employed to determine the levels of IFN-γ and IL-17.
To evaluate the potential of C18dMeBrar (9a) as a Th1/Th17 adjuvant, GM-CSF BMDMs and T-cells from OVA-specific OT-II TCR Tg mice were co-cultured on plates coated with TDM (0.01 nmol/well), TDB (0.01 nmol/well), or C18dMeBrar (9a, 0.01 nmol/well). The cells were stimulated with OVA (0, 0.1, and 1 μM), and after 48 hours, the supernatant was collected. Levels of the key Th1 cytokine IFN-γ, which is indicative of an enhanced host defence response, and the Th17 cytokine IL-17 were measured via ELISA (FIG. 3). […] Antigen-specific secretion of IFN-γ however, was not enhanced by treatment with 9a.

mMincle-Ig = target: T2, mMincle-Ig (Mus musculus, UniProt Q9R0Q8); assay: In vitro Mincle binding assay (ELISA) with mMincle-Ig fusion protein; design: species or system murine; conditions: plate-coated ligand 0.1 nmol/well
T2 construct: using soluble Mincle-Ig fusion-proteins; made in house
T2 sequence (Q9R0Q8 46-214 limits assumed): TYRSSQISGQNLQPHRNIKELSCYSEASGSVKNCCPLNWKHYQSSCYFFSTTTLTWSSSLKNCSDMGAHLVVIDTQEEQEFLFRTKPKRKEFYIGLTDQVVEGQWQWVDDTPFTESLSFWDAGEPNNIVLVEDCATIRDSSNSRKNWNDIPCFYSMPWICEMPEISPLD
Experimental: as §1
In vitro Mincle binding assay: The preparation of mMincle- and hMincle-Ig fusion proteins have been previously described. Plate-coated glycolipids 9a-i, TDB, and TDM were incubated with hMincle-Ig, mMincle-Ig, or hIgG1-Fc (Ig) [3 μg/mL in binding buffer (20 mM Tris-HCl, 150 mM NaCl, 1 mM CaCl2), 2 mM MgCl2, pH 7.0)]. Detection of bound protein was achieved via incubation with anti-hIgG-HRP followed by the addition of a colorimetric substrate and measurement of OD at 450 nm. Background was accounted for by subtracting the hIgG1-Fc OD450 values from fusion protein OD450 values
The synthesised brartemicin analogues prepared in Example 1 were first tested for their ability to bind to both human and murine Mincle in an enzyme-linked immunosorbent assay (ELISA) using soluble Mincle-Ig fusion-proteins (FIG. 1a).

[2] = 0.01 nmol/well, OVA 0, 0.1 and 1 μM, ELISA

Substance: 6,6′-Di-O-(2-hydroxy-4-octabenzyloxybenzoyl)-α,α′-D-trehalose [9a]
- activation of hMincle NFAT-GFP reporter cells (GFP by flow cytometry) (hMincle+FcRγ): strongly activated; also recorded: best able to activate hMincle
- IL-1β production (wild-type GM-CSF BMDMs): significant production
- IL-6 production (wild-type GM-CSF BMDMs): significant production
- MIP-2 production (wild-type GM-CSF BMDMs): significant production
- TNF production (wild-type GM-CSF BMDMs): significant production
- OVA-specific production of IL-17 [1, 2]: significantly augmented
- antigen-specific secretion of IFN-γ [1, 2]: not enhanced
- adjuvant activity in vitro ([1]; 0.1 nmol/well, OVA323-339 peptide 0, 0.1 and 1 μM): displays adjuvant activity in vitro
- binding to mMincle-Ig (ELISA, OD at 450 nm) (mMincle-Ig): good binding
